Patent US12551543B2, “Vaccine compositions comprising C—C motif chemokine 22 (CCL22) or fragments thereof” (IO BIOTECH APS, priority 2015, dated 2026)
“Also recorded” adds a separate entry of the source. Like-named read-outs stand apart in the source and are kept apart here.

Experiments:
C57BL/6 mice = test: Murine CCL22 peptide vaccination, IFNγ ELISPOT on splenocytes; type: in vivo; settings: 100 μg peptide s.c. in IFA/PBS once a week for 3 weeks
Procedure: Murine CCL22 peptide (TAG Copenhagen, Denmark) stocks of 10 mM (mCCL22Short) and 5 mM (mCCL22Long) were made in DMSO. Mice were vaccinated subcutaneously (s.c) on the lower back with 100 μg peptide in 1:1 (vol/vol) IFA/PBS emulsion in a total volume of 100 μl. Mice were vaccinated once a week for 3 weeks and sacrificed one week after the last vaccination.
Spleens from sacrificed mice were removed and smashed through a cell strainer ([…]) and washed with R10 media: RPMI 1640 (Gibco® by Life technologies™) with 10% FCS (Gibco® by Life technologies™). Red blood cells lysed by adding red blood cell lysis buffer for 2 min, followed by two washes with R10 with 10% fetal bovine serum.
ELISPOT was performed as described by the manufacturer's instruction. In short, 96-well MSIPN4W ELISPOT plate (Millipore) were coated with mouse IFNγ-specific capture Ab (AN18: Mabtech) in a concentration of 12 μg/ml in PBS overnight at 4° C., 8×10^5 or 4×10^5 splenocyteslwell were seeded in the plate in triplicates. To investigate IFNγ response to murine CCL22 peptides, cells were incubated with different peptides (5 μM) or R10 as control for 18-20 h at 37° C. ELISPOT was developed with mouse IFNγ-specific detection Ab (R4-6A2-biotin; Mabtech) in a concentration of 1 μg/ml in Buffer (PBS, 0.5% BSA and NaN3) for 2 h at room temperature, followed by 6 washes in PBS. […]

T2 cells = test: 51Cr-release cytotoxicity assay, peptide-pulsed T2 cells; type: cell-based; settings: for T-cell avidity of pCCL223-12-specific T cells, peptide titration: effector to target ratio 3:1
Procedure: (§1) Conventional ^51Cr-release assays for CTL-mediated cytotoxicity were carried out as described elsewhere (Andersen et al., 1999). Target cells were T2-cells (ATCC), HLA-A2^+ EBV transformed B-cell line (RPM16666), AML cells (UKE-1 and THP1) colon cancer cells (SW480), melanoma cell line (FM55-M2), Breast cancer cells MDA-MB231 with or without IFN-γ (100 U/m1) addition for 2 days prior to performing cytotoxicity assay. For peptide titration cytotoxicity assay, T2 cells were used as target cells and a constant effector to target ratio of 3:1 was used for all peptide concentrations.

CCL22 [1] = test: CCL22 ELISA of PBMC supernatants after peptide stimulation; type: cell-based, human
Procedure: Cell culture supernatants from PBMC, cancer cell lines and ascites cell cultures as well as siRNA transfected THP-1 cells were analyzed using Human CCL22/MDC DuoSet ELISA kit (R&D Systems) according to manufacturer's instructions.
(§2) PBMCs from healthy donors or cancer patients were thawed and rested for 4 hours in X-VIVO 15™ (Lonza) before being set up into 24-well plates with 2×10^6 cells/well in X-Vivo medium with 5% human serum. […] Appropriate amount of DMSO was added to HIV control wells to control for the solvent of pCCL223-12 peptide. The following day, IL-2 was added to a final concentration of 120 U/ml (360 U for ascites cells stimulation). Supernatant samples were collected after 2 or 7 days of culture. Cells were stimulated twice before being tested in ELISPOT assay.

K562-A2 cells = test: 51Cr-release assay, HLA-A2-transfected K562 cells pulsed with peptide; type: cell-based
HLA-negative K562 cells = test: 51Cr-release assay, non-transfected K562 cells pulsed with peptide; type: cell-based
Procedure: as §1, with “assay.” for “assay. For peptide titration cytotoxicity assay, T2 cells were used as target cells and a constant effector to target ratio of 3:1 was used for all peptide concentrations.”

CCL22 [2] = test: CCL22 ELISA of ovarian cancer ascites cell supernatants after peptide stimulation; type: cell-based, human; settings: ascites cells from ovarian cancer patients, IL-2, compared to HIV peptide
Procedure: Peripheral Blood Mononuclear Cells (PBMC) were collected from healthy individuals and cancer patients (melanoma, renal cell carcinoma and breast cancer patients). Blood samples were drawn a minimum of four weeks after termination of any kind of anti-cancer therapy. PBMC were isolated using Lymphoprep™ separation, HLA-typed and frozen in FCS with 10% DMSO. Fresh ovarian ascites was filtered with a 70 μm filter and the cells were isolated by centrifugation (1500 […], 5 min). If the ascites contained a high abundance of erythrocytes, they were removed by adding lysis-buffer (Ortho-Mune Lysing Solution) to the cells with incubation of 3-5 min. The lysis-buffer was quickly washed away and the cells cryopreserved in human serum with 10% DMSO at −140 degrees until use. The protocol was approved by the Scientific Ethics Committee for The Capital Region of Denmark and conducted in accordance with the provisions of the Declaration of Helsinki. Written informed consent from the patients was obtained before study entry.
Cell culture supernatants from PBMC, cancer cell lines and ascites cell cultures as well as siRNA transfected THP-1 cells were analyzed using Human CCL22/MDC DuoSet ELISA kit (R&D Systems) according to manufacturer's instructions. […]

[3] = test system: CCL22-specific T cell cultures; test: Intracellular staining for IFNγ and TNFα after peptide stimulation; type: cell-based, human
Procedure: (§3) The following day IL-7 and IL-12 (PeproTech, London, UK) were added. […] The day after peptide stimulation IL-2 (PeproTech, London, UK) was added. 4 DC stimulations and 1 PBMC stimulation were made in total.
The cells were then stained for surface markers, then washed and permeabilized by using Fixation/Permeabilization and Permeabilization Buffer (eBioscience), according to manufacturer's instructions. Antibodies used: IFNγ-PE-Cy7, TNFa-APC, CD4-PerCP, CD8− FITC (all from BD Biosciences). Dead cells were stained using LIVE/DEAD® Fixable Near-IR Dead Cell Stain Kit according to manufacturer's instructions.

[4] = test system: PBMCs from cancer patients and healthy donors; test: IFNγ ELISPOT on PBMCs; type: cell-based, human
Procedure: In the present study the ELISPOT was performed according to the guidelines provided by CIP (http://cimt.eu/cimt/files/dl/cip guidelines.pdf). The ELISPOT assay was used to quantify peptide epitope specific effector cells that release cytokines (IFNγ, TNFα, IL-17A or IL-10) as described previously (Sorensen et al., 2012). In some experiments, PBMCs were stimulated once in vitro with peptide prior to analysis. In some experiments, 104 autologous DCs were added to the wells as antigen presenting cells. The spots were counted using the ImmunoSpot Series 2.0 Analyzer (C.T.L.—Europe, Bonn, Germany). In some experiments, CD4+ cells were isolated by EasySep human CD4^+ T cell enrichment kit (Stem Cell technologies, Grenoble, France) following manufacturers' instructions. This yielded highly pure cultures (>97% CD4+), which was confirmed by staining with surface antibodies as described below for intracellular cytokine staining (ICS) and flow cytometry (FCM).
PBMCs were placed in the bottom of ELISPOT plate (nitrocellulose bottomed 96-well plates by MultiScreen MAIP N45; Millipore) pre-coated with IFN-γ capture Ab (Mabtech) and the peptides were added at 5 μg/ml. PBMCs from each patient were set up in duplicates or triplicates for peptide and control stimulations. Cells were incubated in ELISPOT plates in the presence of an antigen for 14-16 hours after which they are washed off and secondary biotinylated Ab (Mabtech) was added. After 2h incubation unbound secondary antibody was washed off and streptavidin conjugated alkaline phosphatase (AP) (Mabtech) was added for 1 h. Next, unbound conjugated enzyme is washed off and the assay is developed by adding BCIP/NBT substrate (Mabtech). Developed ELISPOT plates were analysed on CTL ImmunoSpot S6 Ultimate-V analyzer using Immunospot software v5.1. Responses were calculated as the difference between average numbers of spots in wells stimulated with pCCL223-12 peptide and control wells. […]

[5] = test system: PBMCs from a melanoma patient; test: HLA-A2/peptide tetramer staining; type: cell-based, human
Procedure: as §3
HLA-A2 multimers were produced in house by using a previously described MHC peptide exchange technology (15).

PBMCs = test: Cytokine expression LUMINEX of PBMC supernatants after peptide stimulation; type: cell-based, human
Procedure: as §2, with “assay. Cell culture supernatants from PBMCs or ascites cells stimulated with CCL22-3 or HIV peptide were analyzed for IFN-γ, TNF-α, IL-6, IL-10 and 1 L-1β using Bio-Plex Pro™ Human Chemokine assays from Bio-Rad. […] Wilcoxon-signed rank test was used for statistical analysis of IL-10 expression due to multiple zero values.” for “assay.”

MATLRVPLLVALVLLAVAIQTS (listed as Mus musculus) [mCCL22long, long murine CCL22 peptide]
IFNγ ELISPOT immune response of splenocytes of vaccinated mice (C57BL/6 mice): increased immune response

MDRLQTALLVVLVLLAVALQAT (listed as Homo sapiens) [CCL22long, Polypeptide fragment of human CCL22]
lysis of peptide-pulsed T2 cells by CCL22-specific T cells (T2 cells): recognized and killed | lysis of peptide-pulsed T2 cells by CCL22-specific T cells (T2 cells; listed as CCL22-signal peptide): lysed

RLQTALLVV (listed as Homo sapiens) [pCCL223-11, Polypeptide fragment of human CCL22]
T-cell avidity of pCCL223-12-specific T cells, peptide titration (T2 cells): reacted towards both peptides | T-cell avidity of pCCL223-12-specific T cells, peptide titration (T2 cells; listed as CCL22-2): cross-react

RLQTALLVVL (listed as Homo sapiens) [pCCL223-12, Polypeptide fragment of human CCL22]
CCL22 concentration in supernatants compared to HIV control peptide (CCL22 [1]; PBMCs from 11 healthy donors, one week after stimulation): significantly decreased | overall decrease in CCL22 concentration compared to HIV control peptide (CCL22 [1]; PBMCs from 13 cancer patients, one week after stimulation): did not reach significance | CCL22 concentration compared to HIV control peptide (CCL22 [1]; PBMCs from cancer patients with high CCL22 expression (≥5000 pg/mL)): significant decrease | CCL22 expression in supernatant compared to HIV control peptide (CCL22 [1]; donor PBMCs with ELISPOT response, over one week, IL-2): lower | recognition of HLA-A2-transfected K562 cells pulsed with peptide (K562-A2 cells): only recognized | recognition of HLA-A2-transfected K562 cells pulsed with peptide (K562-A2 cells; listed as CCL22-3): recognized and killed | recognition of non-transfected K562 cells pulsed with peptide (HLA-negative K562 cells): not recognized | lysis of peptide-pulsed T2 cells by CCL22-specific T cells (T2 cells): able to lyse | T-cell avidity of pCCL223-12-specific T cells, peptide titration (T2 cells): highest avidity | T-cell avidity of pCCL223-12-specific T cells, peptide titration (T2 cells; listed as CCL22-3): recognized better | lysis of peptide-pulsed T2 cells by CCL22-specific T cells (T2 cells; listed as CCL22-3): lysed; also recorded: specifically recognize and lyse | overall CCL22 levels in supernatants (CCL22 [2]): decrease | overall CCL22 levels in supernatants (CCL22 [2]; listed as CCL22-3): affected | CD4+ T cell response (IFNγ, TNFα) to peptide stimulation [3]: no response detected | CD4+ T cell response (IFNγ, TNFα) to peptide stimulation ([3]; listed as CCL22-3): no reactivity | CD8+ T cell response (IFNγ, TNFα) to peptide stimulation ([3]; listed as CCL22-3): CD8+ (Left) and not CD4+ (Right) T cells react; also recorded: secreting IFN-γ and TNF-α | CD8+ cells secreting IFNγ and TNFα in response to peptide stimulation ([3]; tetramer-isolated, expanded culture): Around 30% | spontaneous specific T-cell reactivity, IFN-γ ELISPOT ([4]; PBMCs from 13 cancer patients and 10 healthy individuals, peptide stimulation for two weeks with low-dose IL-2): detected in a number of melanoma patients and healthy donors | overall ELISPOT responses, healthy donors versus cancer patients ([4]; peptide stimulation for two weeks with low-dose IL-2): similar | specific responses by IFNγ ELISPOT ([4]; screen of PBMCs from cancer patients): Indications for specific responses | tetramer-positive cells ([5]; after five stimulations with peptide-pulsed autologous DCs or PBMCs): small but distinct population of tetramer-positive cells | tetramer-positive cells ([5]; after tetramer isolation and expansion): clear population | IL-10 in the supernatants after stimulation (PBMCs): almost undetectable | IL-6 level compared to HIV control peptide (PBMCs; PBMCs from 11 cancer patients, one week of stimulation): significant increase | cultures with decreasing TNFα levels (PBMCs; PBMCs from cancer patients, one week of stimulation): 7 out of 11 | cultures with decreasing TNFα levels (PBMCs; PBMCs from healthy donors, one week of stimulation): 7 out of 10 | IFN-γ concentration versus control peptide (PBMCs; culture supernatants): no unambiguous differences | IL-1β concentration versus control peptide (PBMCs; culture supernatants): no unambiguous differences | IL-10 concentration versus control peptide (PBMCs; culture supernatants): no unambiguous differences | IL-1 induced after stimulation (PBMCs; data not shown): only one cancer patient and two healthy donors

VALVLLAVAI (listed as Mus musculus) [mCCL22short, short murine CCL22 peptide; part of mCCL22Long]
IFNγ ELISPOT immune response of splenocytes of vaccinated mice (C57BL/6 mice): increased immune response
